Our source for the inhibition values is ChEMBL document CHEMBL1151500, “Inhibition of calpain by peptidyl heterocycles” (Bioorg Med Chem Lett, 1996).

Molecules are shown by their SMILES.

The target in this test is T1, Calpain-1 catalytic subunit (Homo sapiens) (UniProt P07384).
T1 sequence (whole entry): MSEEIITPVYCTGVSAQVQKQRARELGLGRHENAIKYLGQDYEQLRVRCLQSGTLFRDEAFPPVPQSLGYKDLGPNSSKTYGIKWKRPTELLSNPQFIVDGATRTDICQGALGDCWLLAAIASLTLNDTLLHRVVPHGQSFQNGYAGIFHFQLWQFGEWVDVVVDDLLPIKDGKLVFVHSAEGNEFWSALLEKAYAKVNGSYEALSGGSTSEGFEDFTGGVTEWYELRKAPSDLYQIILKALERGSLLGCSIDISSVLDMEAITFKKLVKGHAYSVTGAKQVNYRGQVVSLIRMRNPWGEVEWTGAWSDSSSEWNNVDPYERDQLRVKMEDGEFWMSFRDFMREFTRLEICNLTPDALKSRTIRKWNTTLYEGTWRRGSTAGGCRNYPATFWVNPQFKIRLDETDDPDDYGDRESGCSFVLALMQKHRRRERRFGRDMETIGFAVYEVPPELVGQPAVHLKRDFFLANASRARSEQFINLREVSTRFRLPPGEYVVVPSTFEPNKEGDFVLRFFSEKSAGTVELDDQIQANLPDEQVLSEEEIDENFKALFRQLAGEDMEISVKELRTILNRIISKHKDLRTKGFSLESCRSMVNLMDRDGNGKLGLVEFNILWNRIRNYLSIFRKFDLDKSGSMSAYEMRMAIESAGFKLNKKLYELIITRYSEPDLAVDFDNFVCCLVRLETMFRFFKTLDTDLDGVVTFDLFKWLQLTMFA
Kind of test: Inhibitory activity against human recombinant Calpain 1 at a concentration of 10 uM.
`CC(C)C[C@H](NC(=O)OCc1ccccc1)C(=O)N[C@@H](CC(C)C)C(=O)c1nccn1Cc1ccccc1`: the inhibition (as a rule, how much of the control response was suppressed) is 39%.

With `CC(C)C[C@H](NC(=O)OCc1ccccc1)C(=O)N[C@@H](CC(C)C)C(=O)c1nccn1COCC[Si](C)(C)C`, the inhibition is 0%.

On to `CC(C)C[C@H](NC(=O)OCc1ccccc1)C(=O)N[C@@H](CC(C)C)C(=O)C1N=NN=N1`, for which the inhibition was determined as 11%.

`CC(C)C[C@H](NC(=O)OCc1ccccc1)C(=O)N[C@@H](CC(C)C)C(=O)N[C@@H](Cc1ccccc1)C(=O)c1nccs1`: the inhibition was determined as 54%.

For `CC(C)C[C@H](NC(=O)OC(C)(C)C)C(=O)N[C@@H](CC(C)C)C(=O)c1ncc[nH]1`, the inhibition is 77%.

For the compound `CC(C)C[C@H](NC(=O)OCc1ccccc1)C(=O)N[C@@H](CC(C)C)C(=O)c1ncc[nH]1`, the inhibition was determined as 0%.
